Experimental findings from PubChem BioAssay AID180 (DTP/NCI, 2004) are described below.

Where “and” joins values, the source holds several entries; their conditions need not be identical. Identical values can stand only once.

The assay has as its system BDF1 mice, Adenocarcinoma 755 s.c., tumor weight T/C. The experiment in a line: NCI In Vivo Anticancer Drug Screen. Data for tumor model Adenocarcinoma 755 (subcutaneous) in B6D2F1 (BDF1) mice. The following applies: endpoint: mean tumor weight, higher = larger tumour. A digest of the protocol:
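Readout: T/C, i.e. treated-group measurement over vehicle-control measurement. Endpoint is survival or tumor size in tumor-bearing mice given compound.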

[1] abbreviates: dose: 30.0 mg/kg/injection, schedule: Q01DX011 (ip), vehicle: carboxymethylcellulose (CMC).
The mark [2] stands for this setting: dose: 60.0 mg/kg/injection, schedule: Q01DX011 (ip), vehicle: carboxymethylcellulose (CMC).
Where [3] appears, read: dose: 120.0 mg/kg/injection, schedule: Q01DX011 (ip), vehicle: carboxymethylcellulose (CMC).
The mark [4] stands for this setting: dose: 240.0 mg/kg/injection, schedule: Q01DX011 (ip), vehicle: carboxymethylcellulose (CMC).
Setting [5] is: dose: 15.0 mg/kg/injection, schedule: Q01DX011 (ip), vehicle: methylcellulose (MC).
Where [6] appears, read: dose: 31.0 mg/kg/injection, schedule: Q01DX011 (ip), vehicle: methylcellulose (MC).
Where [7] appears, read: dose: 125.0 mg/kg/injection, schedule: Q01DX011 (ip), vehicle: methylcellulose (MC).
Setting [8] is: dose: 250.0 mg/kg/injection, schedule: Q01DX011 (ip), vehicle: methylcellulose (MC).
The mark [9] stands for this setting: dose: 50.0 mg/kg/injection, schedule: Q01DX011 (ip), vehicle: carboxymethylcellulose (CMC).

As usually defined, the T/C is the ratio of treated to control. In the case of `CCN(CC)c1ccc(/C=C/c2ccnc3ccccc23)cc1`, the T/C (dose: 2.5 mg/kg/injection, schedule: Q01DX011 (ip), vehicle: other) is 86 % of control; the T/C (dose: 3.03 mg/kg/injection, schedule: Q01DX011 (ip), vehicle: carboxymethylcellulose (CMC)) is 77 % of control; the T/C (dose: 3.23 mg/kg/injection, schedule: Q01DX011 (ip), vehicle: other) is 84 % of control; the T/C (dose: 4.8 mg/kg/injection, schedule: Q01DX011 (ip), vehicle: carboxymethylcellulose (CMC)) was 74 % of control; the T/C (dose: 5.0 mg/kg/injection, schedule: Q01DX011 (ip), vehicle: other) was 91 % of control; the T/C (dose: 6.0 mg/kg/injection, schedule: Q01DX011 (ip), vehicle: carboxymethylcellulose (CMC)) is 69 % of control. Besides, the T/C by setting is: (dose: 6.05 mg/kg/injection, schedule: Q01DX011 (ip), vehicle: carboxymethylcellulose (CMC)) 119 % of control; (dose: 6.45 mg/kg/injection, schedule: Q01DX011 (ip), vehicle: other) 115 % of control; (dose: 8.0 mg/kg/injection, schedule: Q01DX011 (ip), vehicle: carboxymethylcellulose (CMC)) 55 % of control; (dose: 9.68 mg/kg/injection, schedule: Q01DX011 (ip), vehicle: carboxymethylcellulose (CMC)) 64 % of control; (dose: 12.0 mg/kg/injection, schedule: Q01DX011 (ip), vehicle: carboxymethylcellulose (CMC)) 46 % of control; (dose: 12.1 mg/kg/injection, schedule: Q01DX011 (ip), vehicle: carboxymethylcellulose (CMC)) 31 % of control. Moreover, the T/C is, setting by setting: (dose: 12.9 mg/kg/injection, schedule: Q01DX011 (ip), vehicle: other) 55 % of control; (dose: 14.0 mg/kg/injection, schedule: Q01DX011 (ip), vehicle: carboxymethylcellulose (CMC)) 70 % of control; (dose: 15.0 mg/kg/injection, schedule: Q01DX011 (ip), vehicle: other) 25 % of control; (dose: 16.13 mg/kg/injection, schedule: Q01DX011 (ip), vehicle: carboxymethylcellulose (CMC)) 52 % of control.

`CC(=O)OCC1OC(n2cnc3c(Cl)nc(Cl)nc32)C(OC(C)=O)C1OC(C)=O` (stereo not given): the T/C runs as follows: under setting [1], 85 % of control; under setting [2], 92 % of control; under setting [3], 61 % of control; under setting [4], 61 % of control.

For the compound `O=C(O)/C=C\C(=O)Nc1nccs1`, under “dose: 25.0 mg/kg/injection, schedule: Q01DX011 (ip), vehicle: carboxymethylcellulose (CMC)”, the T/C is 80 % of control.

With `CC(=O)OCC(=O)[C@@]1(O)CC[C@H]2[C@@H]3C[C@H](C)C4=CC(=O)C=C[C@]4(C)[C@H]3[C@@H](O)C[C@@]21C`, the T/C reads like this: (dose: 2.5 mg/kg/injection, schedule: Q01DX011 (sc), vehicle: steriod suspending solution) 70 % of control; (dose: 3.8 mg/kg/injection, schedule: Q01DX011 (sc), vehicle: steriod suspending solution) 77 % of control; (dose: 5.0 mg/kg/injection, schedule: Q01DX011 (sc), vehicle: steriod suspending solution) 57 % of control; (dose: 7.5 mg/kg/injection, schedule: Q01DX011 (sc), vehicle: steriod suspending solution) 68 % of control; (dose: 10.0 mg/kg/injection, schedule: Q01DX011 (sc), vehicle: steriod suspending solution) 35 % of control; (dose: 15.0 mg/kg/injection, schedule: Q01DX011 (sc), vehicle: steriod suspending solution) 37 % of control. In addition, the T/C reads like this: (dose: 20.0 mg/kg/injection, schedule: Q01DX011 (sc), vehicle: steriod suspending solution) 25 % of control and 40 % of control; (dose: 40.0 mg/kg/injection, schedule: Q01DX011 (sc), vehicle: steriod suspending solution) 14 % of control and 20 % of control; (dose: 80.0 mg/kg/injection, schedule: Q01DX011 (sc), vehicle: steriod suspending solution) 6 % of control.

Take `CCCCNc1nc(SCc2ccc(Cl)cc2Cl)ncc1C`: the T/C is 78 % of control under setting [5]; 91 % of control under setting [6]; 84 % of control (dose: 62.0 mg/kg/injection, schedule: Q01DX011 (ip), vehicle: methylcellulose (MC)); 72 % of control under setting [7]; 60 % of control under setting [8].

`O=c1cn[nH]c(=O)[nH]1`: the T/C reads like this: (dose: 110.1 mg/kg/injection, schedule: Q01DX011 (ip), vehicle: carboxymethylcellulose (CMC)) 104 % of control; (dose: 125.0 mg/kg/injection, schedule: Q01DX011 (ip), vehicle: carboxymethylcellulose (CMC)) 66 % of control; (dose: 220.2 mg/kg/injection, schedule: Q01DX011 (ip), vehicle: carboxymethylcellulose (CMC)) 80 % of control; (dose: 250.0 mg/kg/injection, schedule: Q01DX011 (ip), vehicle: carboxymethylcellulose (CMC)) 107 % of control; (dose: 440.4 mg/kg/injection, schedule: Q01DX011 (ip), vehicle: carboxymethylcellulose (CMC)) 84 % of control; (dose: 500.0 mg/kg/injection, schedule: Q01DX011 (ip), vehicle: carboxymethylcellulose (CMC)) 87 % of control. Besides, the T/C reads like this: (dose: 880.8 mg/kg/injection, schedule: Q01DX011 (ip), vehicle: carboxymethylcellulose (CMC)) 77 % of control; (dose: 1000.0 mg/kg/injection, schedule: Q01DX011 (ip), vehicle: carboxymethylcellulose (CMC)) 80 % of control.

Turning to `O=S(=O)(O)c1cccnc1`, the T/C (dose: 19.63 mg/kg/injection, schedule: Q01DX011 (ip), vehicle: carboxymethylcellulose (CMC)) is 68 % of control; the T/C (dose: 37.36 mg/kg/injection, schedule: Q01DX011 (ip), vehicle: carboxymethylcellulose (CMC)) was 91 % of control and 101 % of control; the T/C (dose: 39.25 mg/kg/injection, schedule: Q01DX011 (ip), vehicle: carboxymethylcellulose (CMC)) was 99 % of control; the T/C (dose: 62.5 mg/kg/injection, schedule: Q01DX011 (ip), vehicle: methylcellulose (MC)) is 108 % of control; the T/C (dose: 78.5 mg/kg/injection, schedule: Q01DX011 (ip), vehicle: carboxymethylcellulose (CMC)) was 152 % of control; the T/C under setting [7] is 76 % of control. In addition, the T/C by setting is: (dose: 157.0 mg/kg/injection, schedule: Q01DX011 (ip), vehicle: carboxymethylcellulose (CMC)) 79 % of control; under setting [8], 95 % of control; (dose: 298.9 mg/kg/injection, schedule: Q01DX011 (ip), vehicle: carboxymethylcellulose (CMC)) 120 % of control.

Turning to `CSc1ncc(Br)c(Nc2ccccc2Cl)n1`, the T/C under setting [5] was 110 % of control, the T/C under setting [6] is 104 % of control and the T/C under setting [8] was 155 % of control.

With `OCC1CCC(n2cnc3c(=S)nc[nH]c32)C1` (stereo not given), the T/C was 89 % of control under setting [9]; 88 % of control (dose: 100.0 mg/kg/injection, schedule: Q01DX011 (ip), vehicle: carboxymethylcellulose (CMC)); 48 % of control (dose: 200.0 mg/kg/injection, schedule: Q01DX011 (ip), vehicle: carboxymethylcellulose (CMC)).

Consider `O=C1NC(=O)c2cc([N+](=O)[O-])cc3cccc1c23`, for which the T/C is 104 % of control (dose: 85.0 mg/kg/injection, schedule: Q01DX011 (ip), vehicle: methylcellulose (MC)) and 89 % of control (dose: 680.0 mg/kg/injection, schedule: Q01DX011 (ip), vehicle: methylcellulose (MC)).

Turning to `CSc1ncc(Br)c(=O)[nH]1`, the T/C under setting [5] was 81 % of control, the T/C under setting [6] is 72 % of control and the T/C under setting [8] is 56 % of control.

On to `C[C@]1(O)CC[C@H]2[C@@H]3CC[C@@H]4C[C@H](O)CC[C@]4(C)[C@@]3(F)[C@@H](O)C[C@@]21C`, for which the T/C was 73 % of control (dose: 25.0 mg/kg/injection, schedule: Q01DX011 (sc), vehicle: steriod suspending solution); 90 % of control (dose: 200.0 mg/kg/injection, schedule: Q01DX011 (sc), vehicle: steriod suspending solution); 87 % of control (dose: 400.0 mg/kg/injection, schedule: Q01DX011 (sc), vehicle: steriod suspending solution).

For `S=C(N=Nc1ccccc1)NNc1ccccc1`, the T/C runs as follows: under setting [9], 113 % of control; (dose: 75.0 mg/kg/injection, schedule: Q01DX011 (ip), vehicle: carboxymethylcellulose (CMC)) 152 % of control.

Take `Oc1ccc2ccccc2c1-c1c(O)ccc2ccccc12`: the T/C (dose: 12.6 mg/kg/injection, schedule: Q01DX011 (ip), vehicle: other) is 79 % of control; the T/C (dose: 25.0 mg/kg/injection, schedule: Q01DX011 (ip), vehicle: other) was 71 % of control; the T/C (dose: 50.0 mg/kg/injection, schedule: Q01DX011 (ip), vehicle: other) is 41 % of control.

As for `Cc1ccc(/C=N/Nc2nc3c([nH]2)c(=O)n(C)c(=O)n3C)cc1`, the T/C is 95 % of control under setting [1], 115 % of control under setting [2], 112 % of control under setting [3] and 81 % of control under setting [4].
